Data reported in patent US10952966B2, “Pharmaceutical composition comprising solid dispersion of BCS class II drugs with Gelucires” (GATTEFOSSE INDIA PVT. LTD., priority 2014, dated 2021).

What was measured:
[1] = pH 3 to 9; cited from earlier work
[2] = Stress degradation of plain TEL drug, stability indicating HPLC method; type: physicochemical
[3] = n-octanol: buffer pH 7.4; cited from earlier work

CCCc1nc2c(C)cc(-c3nc4ccccc4n3C)cc2n1Cc1ccc(-c2ccccc2C(=O)O)cc1 [TEL, Telmisartan]
solubility [1]: poorly soluble | reduction in area (HPLC) ([2]; 1 N NaOH at 80° C. for 8 hours): 64.4% | TEL degradation ([2]; pH modifiers employed in low concentration): no TEL degradation was observed | partition coefficient, log P [3]: 3.2
